Test results taken from patent US20240217961A1 (MONOPTEROS THERAPEUTICS, INC., priority 2021, published 2024).
Entries after “also recorded” stand apart in the source; their conditions may differ.

How the values were obtained:
[1] = Excipient compatibility study of milled API in binary mixtures (40° C./75% R.H. open, 60° C. closed; HPLC, XRPD, appearance); format: physicochemical
Description: Samples were set up at each of these two conditions: 40° C./75% R.H. open, and 60° ° C., closed. Three sampling time points (initial, 2 weeks, and 4 weeks) are specified in Table 15.
The API was set up as a control at each time point and each condition. For the pure excipients, only one bulk sample was set up at each condition. They were analyzed at the initial time point and at other time points if degradation of the active substance was observed. For the 15 binary mixtures, triplicate samples were set up at each time point/condition. Two samples were analyzed for purity and XRPD test, and the third one was kept as a contingency sample. The appearance and XRPD of samples under each condition were recorded at each time point.
The binary mixture was set up in duplicate.
Excipient blank controls: Each excipient blank was weighed into a 40 mL clear glass vial as excipient blank control. The excipient blank was set up as a single sample.
API control: Approximate: 13.8 mg of API was weighed into a 40 mL clear glass vial. The API control was set up in duplicate.
All the samples for open condition storage were put into an uncapped clear glass vial. The mouth of vials were covered by aluminum foil with pinholes, to avoid cross-contamination, and then stored in the stability chamber. The samples were stored at each condition 40° C./75% R.H. open and 60° C. close conditions and monitored for physical appearance, XRPD, impurities/related substances and assay at each time point, respectively.
All samples at 40° C./75% R.H., and 60° C. for 2 weeks and 4 weeks, were pulled out and cooled to room temperature for physical appearance, total related substances (TRS) and assay analysis. The diluent was accurately added into 40 ml vials and then the solution was sonicated for 10 minutes to facilitate dissolution of the API. Then 1 mL solution was taken out and centrifuged at 14000 rpm for 5 min for twice to separate some undissolved excipients, and then the concentration of supernatants were analyzed by HPLC instrument. The recovery and TRS results of excipient compatibility study at 40° C./75% R.H., and 60° C. are shown in Table 9, and the results of the complete impurity content and XRPD result are listed in Table 7.

[2] = Hygroscopicity: storage at 92.5% RH for 1 week, weight loss by TGA; format: physicochemical; conditions: for 92.5% RH for 1W (by TGA,%): weight loss by TGA at 145° C. after 92.5% RH for 1 week; for 92.5% RH for 1W, observation: after 92.5% RH for 1 week, Deliqu means deliquescent
[3] = Dynamic Vapor Sorption (DVS) at 25° C.; conditions: for DVS Result 95% RH: 0(120 min)-95% RH(180 min), dm/dt 0.002%
[4] = Solubility at 25° C., 24 h, in SGF, FaSSIF, FeSSIF and water; format: physicochemical
[5] = 70% RH, 25° C., method 50-90-0-50% RH, dm/dt = 0.01%

CN1CCCC(CN2c3ccccc3Sc3ccccc32)C1.O=C(O)CCC(=O)O (stereo not shown) [API control]
Assay (%) ([1]; 40° C./75% RH open, 2 weeks): 100.82% | TRS (%) (total related substances) ([1]; 40° C./75% RH open, 2 weeks): 0.18% | XRPD ([1]; 40° C./75% RH open, 2 weeks): No change | Assay (%) ([1]; 40° C./75% RH open, 4 weeks): 100.08% | TRS (%) (total related substances) ([1]; 40° C./75% RH open, 4 weeks): 0.12% | XRPD ([1]; 40° C./75% RH open, 4 weeks): No change | Assay (%) ([1]; 60° C. close, 2 weeks): 99.70% | TRS (%) (total related substances) ([1]; 60° C. close, 2 weeks): 0.18% | XRPD ([1]; 60° C. close, 2 weeks): No change | Assay (%) ([1]; 60° C. close, 4 weeks): 102.38% | TRS (%) (total related substances) ([1]; 60° C. close, 4 weeks): 0.13% | XRPD ([1]; 60° C. close, 4 weeks): No change | Assay (%) ([1]; Initial 0 day): 100.00% | TRS (%) (total related substances) ([1]; Initial 0 day): 0.14%

CN1CCCC(CN2c3ccccc3Sc3ccccc32)C1.O=C(O)CCCCC(=O)O (stereo not shown) [Adipate]
92.5% RH for 1W (by TGA,%) [2]: 0.6% at

N[C@@H](CCC(=O)O)C(=O)O [Glutamate]
92.5% RH for 1W (by TGA,%) [2]: 2.4% at | DVS Result 95% RH ([3]; 25° C.): 16.84%

CN1CCCC(CN2c3ccccc3Sc3ccccc32)C1.Cl (stereo not shown) [Hydrochloride, reference compound]
behaviour under long term humidity conditions ([2]; 25° C., 92.5% RH for one week): deliquescent | 92.5% RH for 1W, observation [2]: Deliqu | moisture absorbed by DVS ([3]; 25° C. and 95% RH for about 5 hours): 16.9 wt % | moisture absorbed at 80% RH ([3]; 80% RH at 25° C.): 0.85%

CN1CCCC(CN2c3ccccc3Sc3ccccc32)C1.O=C(O)CC(O)C(=O)O (stereo not shown) [Malate]
92.5% RH for 1W, observation [2]: Deliqu

CN1CCCC(CN2c3ccccc3Sc3ccccc32)C1.O=P(O)(O)O (stereo not shown) [Phosphate]
92.5% RH for 1W (by TGA,%) [2]: 1.3% at | DVS Result 95% RH ([3]; 25° C.): 5.18%

O=S(=O)(O)O [Sulfate]
92.5% RH for 1W, observation [2]: Discoloration,; also recorded: Agglomerate | 92.5% RH for 1W (by TGA,%) [2]: 2.3% at 145 °C

CN1CCCC(CN2c3ccccc3Sc3ccccc32)C1.O=C(O)C(O)C(O)C(=O)O (stereo not shown) [Tartarate Pattern I]
92.5% RH for 1W, observation [2]: Deliqu

(S)-mepazine succinate salt
92.5% RH for 1W (by TGA,%) [2]: 0.4% at | DVS Result 95% RH ([3]; 25° C.): 1.87%

Fumarate
92.5% RH for 1W (by TGA,%) [2]: 0.3% at | Solubility 24 h ([4]; FaSSIF, pH 6.5): 9400 µg/mL | pH of solubility sample ([4]; FaSSIF, pH 6.5, 24 h): 3.63 | pH of solubility sample ([4]; FaSSIF, pH 6.5, 24 h, target concentration 2 mg/mL): 5.48 | Solubility 24 h ([4]; FaSSIF, pH 6.5, target concentration 2 mg/mL): > 2000 µg/mL | Solubility 24 h ([4]; FeSSIF, pH 5.0): 3400 µg/mL | pH of solubility sample ([4]; FeSSIF, pH 5.0, 24 h): 4.52 | pH of solubility sample ([4]; FeSSIF, pH 5.0, 24 h, target concentration 2 mg/mL): 4.89 | Solubility 24 h ([4]; FeSSIF, pH 5.0, target concentration 2 mg/mL): > 2000 µg/mL | Solubility 24 h ([4]; H2O): 3800 µg/mL | pH of solubility sample ([4]; H2O, 24 h): 3.49 | pH of solubility sample ([4]; H2O, 24 h, target concentration 2 mg/mL): 3.80 | Solubility 24 h ([4]; H2O, target concentration 2 mg/mL): > 2000 µg/mL | Solubility 24 h ([4]; SGF, pH 2.0): 7500 µg/mL | pH of solubility sample ([4]; SGF, pH 2.0, 24 h): 2.60 | pH of solubility sample ([4]; SGF, pH 2.0, 24 h, target concentration 2 mg/mL): 1.99 | Solubility 24 h ([4]; SGF, pH 2.0, target concentration 2 mg/mL): > 2000 µg/mL | DVS Result 95% RH ([3]; 25° C.): 1.29% | DVS Desorp (%) [3, 5]: 0.13% | DVS Sorption (%) [3, 5]: 0.13%
